Experimental data as given in PubChem BioAssay (NCI).
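Interpolation was linear, between the two tested concentrations surrounding the appropriate level; five concentrations were tested over 48 hours in 96-well plates. GI50 marks 50% less growth. The concentration for full growth arrest is given as TGI.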

Key:
Assay in all cases: growth of human tumour cells (NCI), 48 h
A498 renal = system: A498 renal
HS 578T breast = system: HS 578T breast
SR leukemia = system: SR leukemia
CAKI-1 renal = system: CAKI-1 renal
HOP-92 NSCLC = system: HOP-92 NSCLC
SK-MEL-2 melanoma = system: SK-MEL-2 melanoma
SNB-75 CNS = system: SNB-75 CNS
NCI/ADR-RES ovarian = system: NCI/ADR-RES ovarian
MALME-3M melanoma = system: MALME-3M melanoma
SF-295 CNS = system: SF-295 CNS
RXF 393 renal = system: RXF 393 renal
HCT-15 colon = system: HCT-15 colon
SK-MEL-28 melanoma = system: SK-MEL-28 melanoma
M14 melanoma = system: M14 melanoma
SF-268 CNS = system: SF-268 CNS
NCI-H226 lung = system: NCI-H226 lung
OVCAR-3 ovarian = system: OVCAR-3 ovarian
COLO 205 colon = system: COLO 205 colon
SK-OV-3 ovarian = system: SK-OV-3 ovarian
SW-620 colon = system: SW-620 colon
OVCAR-5 ovarian = system: OVCAR-5 ovarian
SNB-19 CNS = system: SNB-19 CNS
SK-MEL-5 melanoma = system: SK-MEL-5 melanoma
T-47D breast = system: T-47D breast
EKVX NSCLC = system: EKVX NSCLC
TK-10 renal = system: TK-10 renal
CCRF-CEM leukemia = system: CCRF-CEM leukemia
A549 NSCLC = system: A549 NSCLC
NCI-H460 lung = system: NCI-H460 lung
DU-145 prostate = system: DU-145 prostate
NCI-H522 lung = system: NCI-H522 lung
HL-60(TB) leukemia = system: HL-60(TB) leukemia
U251 CNS = system: U251 CNS
ACHN renal = system: ACHN renal
OVCAR-8 ovarian = system: OVCAR-8 ovarian
PC-3 prostate = system: PC-3 prostate
786-0 renal = system: 786-0 renal
HOP-62 NSCLC = system: HOP-62 NSCLC
UACC-257 melanoma = system: UACC-257 melanoma
HCC-2998 colon = system: HCC-2998 colon
MCF7 breast = system: MCF7 breast
KM12 colon = system: KM12 colon
MDA-MB-435 = system: MDA-MB-435
IGROV1 ovarian = system: IGROV1 ovarian
NCI-H23 lung = system: NCI-H23 lung
SF-539 CNS = system: SF-539 CNS
HCT-116 colon = system: HCT-116 colon
LOX IMVI melanoma = system: LOX IMVI melanoma
MDA-MB-231 breast = system: MDA-MB-231 breast
UO-31 renal = system: UO-31 renal
UACC-62 melanoma = system: UACC-62 melanoma
K-562 leukemia = system: K-562 leukemia
MOLT-4 leukemia = system: MOLT-4 leukemia
RPMI-8226 leukemia = system: RPMI-8226 leukemia
SN12C renal = system: SN12C renal
HT29 colon = system: HT29 colon
BT-549 breast = system: BT-549 breast

Molecule `CCN1CCN(Cc2ccc(NC(=O)Nc3nc4ccc(Oc5ccnc(C(=O)NC)c5)cc4s3)cc2C(F)(F)F)CC1` has a GI50 (A498 renal) of 1.83 µM, a TGI (A498 renal) of 3.54 µM and a GI50 (HS 578T breast) of 2.01 µM. The TGI (HS 578T breast) was 4.44 µM, the GI50 (SR leukemia) was 0.281 µM and the TGI (SR leukemia) was 0.846 µM. The GI50 (CAKI-1 renal) was 1.94 µM, the TGI (CAKI-1 renal) was 4.15 µM and the GI50 (HOP-92 NSCLC) was 1.94 µM. It also gave a TGI (HOP-92 NSCLC) of 3.91 µM, a GI50 (SK-MEL-2 melanoma) of 1.75 µM and a TGI (SK-MEL-2 melanoma) of 3.51 µM. The GI50 (SNB-75 CNS) was 1.37 µM, the TGI (SNB-75 CNS) was 2.73 µM and the GI50 (NCI/ADR-RES ovarian) was 1.95 µM. The TGI (NCI/ADR-RES ovarian) was 4.21 µM, the GI50 (MALME-3M melanoma) was 1.2 µM and the TGI (MALME-3M melanoma) was 2.67 µM. It also gave a GI50 (SF-295 CNS) of 1.82 µM, a TGI (SF-295 CNS) of 3.66 µM and a GI50 (RXF 393 renal) of 1.67 µM. For the same molecule, the TGI (RXF 393 renal) was 3.13 µM, the GI50 (HCT-15 colon) was 1.65 µM and the TGI (HCT-15 colon) was 3.38 µM. The GI50 (SK-MEL-28 melanoma) was 1.24 µM, the TGI (SK-MEL-28 melanoma) was 2.69 µM and the GI50 (M14 melanoma) was 1.75 µM. The TGI (M14 melanoma) was 3.38 µM, the GI50 (SF-268 CNS) was 2 µM and the TGI (SF-268 CNS) was 4.12 µM. For the same molecule, the GI50 (NCI-H226 lung) was 1.45 µM, the TGI (NCI-H226 lung) was 3.16 µM and the GI50 (OVCAR-3 ovarian) was 1.89 µM. The TGI (OVCAR-3 ovarian) was 3.59 µM, the GI50 (COLO 205 colon) was 1.8 µM and the TGI (COLO 205 colon) was 3.39 µM. For the same molecule, the GI50 (SK-OV-3 ovarian) was 1.82 µM, the TGI (SK-OV-3 ovarian) was 3.36 µM and the GI50 (SW-620 colon) was 2.07 µM. The TGI (SW-620 colon) was 3.87 µM, the GI50 (OVCAR-5 ovarian) was 2.12 µM and the TGI (OVCAR-5 ovarian) was 3.93 µM. For the same molecule, the GI50 (SNB-19 CNS) was 2.33 µM, the TGI (SNB-19 CNS) was 4.86 µM and the GI50 (SK-MEL-5 melanoma) was 1.52 µM. The TGI (SK-MEL-5 melanoma) was 2.9 µM, the GI50 (T-47D breast) was 1.99 µM and the TGI (T-47D breast) was 4.25 µM. The GI50 (EKVX NSCLC) was 2.01 µM, the TGI (EKVX NSCLC) was 6.67 µM and the GI50 (TK-10 renal) was 2.5 µM. The TGI (TK-10 renal) was 4.54 µM, the GI50 (CCRF-CEM leukemia) was 0.443 µM and the TGI (CCRF-CEM leukemia) was 2.47 µM. The GI50 (A549 NSCLC) was 1.99 µM, the TGI (A549 NSCLC) was 3.71 µM and the GI50 (NCI-H460 lung) was 1.91 µM. The TGI (NCI-H460 lung) was 3.63 µM, the GI50 (DU-145 prostate) was 1.76 µM and the TGI (DU-145 prostate) was 3.62 µM. The GI50 (NCI-H522 lung) was 1.68 µM, the TGI (NCI-H522 lung) was 3.59 µM and the GI50 (HL-60(TB) leukemia) was 2.01 µM. The TGI (HL-60(TB) leukemia) was 4.11 µM, the GI50 (U251 CNS) was 1.85 µM and the TGI (U251 CNS) was 3.45 µM. The GI50 (ACHN renal) was 1.39 µM, the TGI (ACHN renal) was 2.71 µM and the GI50 (OVCAR-8 ovarian) was 2.11 µM. The TGI (OVCAR-8 ovarian) was 4.49 µM, the GI50 (PC-3 prostate) was 1.87 µM and the TGI (PC-3 prostate) was 3.58 µM. For the same molecule, the GI50 (786-0 renal) was 1.03 µM, the TGI (786-0 renal) was 2.36 µM and the GI50 (HOP-62 NSCLC) was 1.95 µM. For the same molecule, the TGI (HOP-62 NSCLC) was 3.78 µM, the GI50 (UACC-257 melanoma) was 1.86 µM and the TGI (UACC-257 melanoma) was 3.51 µM. For the same molecule, the GI50 (HCC-2998 colon) was 2.05 µM, the TGI (HCC-2998 colon) was 3.67 µM and the GI50 (MCF7 breast) was 1.23 µM. It also gave a TGI (MCF7 breast) of 2.89 µM, a GI50 (KM12 colon) of 0.019 µM and a TGI (KM12 colon) of 1.63 µM. It also gave a GI50 (MDA-MB-435) of 1.44 µM, a TGI (MDA-MB-435) of 2.86 µM and a GI50 (IGROV1 ovarian) of 1.76 µM. For the same molecule, the TGI (IGROV1 ovarian) was 3.62 µM, the GI50 (NCI-H23 lung) was 1.83 µM and the TGI (NCI-H23 lung) was 3.86 µM. It also gave a GI50 (SF-539 CNS) of 1.54 µM, a TGI (SF-539 CNS) of 2.97 µM and a GI50 (HCT-116 colon) of 1.73 µM. It also gave a TGI (HCT-116 colon) of 3.45 µM, a GI50 (LOX IMVI melanoma) of 1.71 µM and a TGI (LOX IMVI melanoma) of 3.17 µM. For the same molecule, the GI50 (MDA-MB-231 breast) was 1.74 µM, the TGI (MDA-MB-231 breast) was 3.4 µM and the GI50 (UO-31 renal) was 1.83 µM. The TGI (UO-31 renal) was 3.4 µM, the GI50 (UACC-62 melanoma) was 1.7 µM and the TGI (UACC-62 melanoma) was 3.28 µM. It also gave a GI50 (K-562 leukemia) of 0.0514 µM, a TGI (K-562 leukemia) of 1.27 µM and a GI50 (MOLT-4 leukemia) of 2.13 µM. The TGI (MOLT-4 leukemia) was 5.02 µM, the GI50 (RPMI-8226 leukemia) was 2.1 µM and the TGI (RPMI-8226 leukemia) was 5.34 µM. It also gave a GI50 (SN12C renal) of 1.8 µM, a TGI (SN12C renal) of 3.66 µM and a GI50 (HT29 colon) of 1.27 µM. It also gave a TGI (HT29 colon) of 3.42 µM, a GI50 (BT-549 breast) of 2.32 µM and a TGI (BT-549 breast) of 4.25 µM.
